Read-outs that look alike come from different tables or passages of the source.
Tests used:
XeIF4E1a [1] = target: T1, XeIF4E1a (Xenopus laevis, UniProt P48597); assay: time-synchronized fluorescence titration of cap analogue binding; conditions: for ΔΔG^o + glycerol XeIF4E1a / Kas + glycerol XeIF4E1a: 10% glycerol; for ΔΔG^o − glycerol XeIF4E1a: without glycerol; for Kas + glycerol XeIF4E1a / Kas − glycerol XeIF4E1a: equilibrium association constant; for Kas − glycerol XeIF4E1a: buffer without glycerol
T1 construct: made in house; host or cells: E. coli Rosetta2(DE3)
From the text: (§1) The time-synchronized fluorescence titration method, widely used to determine the affinity constants of cap–eIF4E complexes [[20,22–26]], measures the quenching of the intrinsic fluorescence of tryptophan residues due to cap binding (Fig. S2). Knowledge of the equilibrium association constant Kas enables the calculation of the free-energy changes involved in the interaction between eIF4E and ligand, according to the standard equation ΔG° = − RTlnKas.
(§2) For human eIF4E1a and eIF4E1b and also for Xenopus eIF4E1a and its mutated forms, measurements were carried out using 0.1 μM protein in 50 mM Hepes/KOH (pH 7.2), 134.5 mM KCl, 0.5 mM EDTA and 1 mM DTT. For Xenopus eIF4E1b(ΔN27), the concentration was 0.2 μM and glycerol was added to the buffer to 10% (v/v) final concentration. […] Fluorescence of measured samples was excited at 280 nm (2.5 nm bandwidth) and detected at 337 nm or 330 nm (4 nm bandwidth), thus reducing the signal originated from the free cap analogues. Measurements were carried out on a LS-55 spectrofluorometer (Perkin Elmer Co.) using freshly prepared proteins, and the fluorescence intensities were corrected for sample dilution and the inner filter effect.
(§3) Equilibrium association constants (Kas) were determined by fitting the theoretical dependence of fluorescence intensity on the total concentration of the cap analogue to the experimental data points, according to the equation described previously (see Ref. [22] and Fig. S2c).
(§4) The final Kas was calculated as a weighted average of 2–6 independent titrations with the weights taken as the reciprocal of the numerical standard deviation squared. Numerical, nonlinear least-squares regression analysis was performed using Origin 6.0 (Microcal Software Inc.). Obtained association constants were used to determine the Gibbs free energy according to the standard equation ΔG° = − RTlnKas.

XeIF4E1a [2] = assay: as above; set-up: species or system Xenopus laevis; conditions: without glycerol
From the text: as §1, §2, §3, §4

heIF4E1a [3] = target: T2, heIF4E1a (Homo sapiens, UniProt P06730); assay: as above; conditions: for ΔΔG^o − glycerol heIF4E1a: without glycerol
T2 construct: made in house; host or cells: E. coli Rosetta2(DE3)
From the text: as §1, §2, §3, §4

heIF4E1b [4] = target: T3, heIF4E1b (Homo sapiens, UniProt A6NMX2); assay: as above; conditions: for Kas − glycerol heIF4E1b: equilibrium association constant, buffer without glycerol
T3 construct: made in house; host or cells: E. coli Rosetta2(DE3)
T3 sequence (A6NMX2 1-242): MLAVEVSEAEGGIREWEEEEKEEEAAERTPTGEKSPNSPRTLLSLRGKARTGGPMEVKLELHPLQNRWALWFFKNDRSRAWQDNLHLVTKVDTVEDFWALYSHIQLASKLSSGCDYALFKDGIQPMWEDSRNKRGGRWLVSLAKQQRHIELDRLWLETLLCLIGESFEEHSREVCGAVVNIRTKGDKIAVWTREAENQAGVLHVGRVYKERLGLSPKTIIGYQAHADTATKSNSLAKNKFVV
From the text: as §1, §2, §3, §4

heIF4E1b [5] = assay: as above; set-up: species or system human; conditions: without glycerol
From the text: as §1, §2, §3, §4

XeIF4E1bΔN27 = assay: as above; set-up: species or system Xenopus laevis; conditions: for Kas + glycerol XeIF4E1bΔN27: equilibrium association constant
From the text: as §1, §2, §3, §4

X4E1a1 (E101S) = target: T4, X4E1a1 (E101S) (Xenopus laevis, UniProt P48597, E101S); assay: fluorescence titration, XeIF4E1a mutant; format: binding; conditions: mutant (E101S) of XeIF4E1a
T4 construct: made in house; host or cells: E. coli Rosetta2(DE3)
From the text: (§5) We tested the effect on cap-binding activity of these positions in the fluorescence assay with six mutated recombinant versions of Xenopus eIF4E1a (Fig. S4). The amino acids were introduced in XeIF4E1a sequentially in the order: E101S/K102R/S195A/M82S/T206L/T207S (numbering of the XeIF4E1a sequence is shifted backward by 4 amino acids relative to XeIF4E1b). […] The biggest contribution to the weaker cap binding of XeIF4E1a, in each case about 20%, resulted from changing Glu101 to Ser and Thr206 to Leu coupled with Thr207 to Ser, with the remaining mutations having only minor effects. […] Glu101 is a solvent-accessible amino acid and is proximal to Trp98 in the S3-S4 loop. […] Attenuation of the cap-binding affinity of XeIF4E1a resulting from mutating Thr206 and Thr207 is consistent with our results mentioned above showing significant influence of C-terminal loop residues on binding phosphate and the second nucleotide.
(§6) For human eIF4E1a and eIF4E1b and also for Xenopus eIF4E1a and its mutated forms, measurements were carried out using 0.1 μM protein in 50 mM Hepes/KOH (pH 7.2), 134.5 mM KCl, 0.5 mM EDTA and 1 mM DTT. For Xenopus eIF4E1b(ΔN27), the concentration was 0.2 μM and glycerol was added to the buffer to 10% (v/v) final concentration. […] The gradually increasing concentration of cap analogue quenches protein fluorescence without shifting the spectrum maximum, while at high concentrations, the fluorescence signal of free cap analogue dominates over the fluorescence from other solution components including free eIF4E and eIF4E in complex with cap (Fig. S2a). Fluorescence of measured samples was excited at 280 nm (2.5 nm bandwidth) and detected at 337 nm or 330 nm (4 nm bandwidth), thus reducing the signal originated from the free cap analogues. Measurements were carried out on a LS-55 spectrofluorometer (Perkin Elmer Co.) using freshly prepared proteins, and the fluorescence intensities were corrected for sample dilution and the inner filter effect.
(§7) Equilibrium association constants (Kas) were determined by fitting the theoretical dependence of fluorescence intensity on the total concentration of the cap analogue to the experimental data points, according to the equation described previously (see Ref. [22] and Fig. S2c). […] Along with Kas and the concentration of the active protein [P0^act], other parameters such as fL and ∆f = fPact − fPL are also gained from the fit, where fL represents the fluorescence efficiency of free cap analogue and ∆f represents the difference between the fluorescence efficiencies of the apo-protein and the complex (Fig. S2c).
as §4

X4E1a1’ (K102R) = target: T5, X4E1a1’ (K102R) (Xenopus laevis, UniProt P48597, K102R); assay: fluorescence titration, XeIF4E1a mutant; format: binding; conditions: mutant (K102R) of XeIF4E1a
T5 construct: made in house; host or cells: E. coli Rosetta2(DE3)
From the text: as §5, §6, §7, §4

X4E1a2 (E101S/K102R) = target: T6, X4E1a2 (E101S/K102R) (Xenopus laevis, UniProt P48597, E101S/K102R); assay: fluorescence titration, XeIF4E1a mutant; format: binding; conditions: mutant (E101S/K102R) of XeIF4E1a
T6 construct: made in house; host or cells: E. coli Rosetta2(DE3)
From the text: as §5, §6, §7, §4

[6] = target: T7, X4E1a3 (E101S/K102R/S195A) (Xenopus laevis, UniProt P48597, E101S/K102R/S195A); assay: fluorescence titration, XeIF4E1a mutant; format: binding; conditions: mutant (E101S/K102R/S195A) of XeIF4E1a
T7 construct: made in house; host or cells: E. coli Rosetta2(DE3)
From the text: as §5, §6, §7, §4

[7] = target: T8, X4E1a4 (E101S/K102R/S195A/M82S) (Xenopus laevis, UniProt P48597, E101S/K102R/M82S/S195A); assay: fluorescence titration, XeIF4E1a mutant; format: binding; conditions: mutant (E101S/K102R/S195A/M82S) of XeIF4E1a
T8 construct: made in house; host or cells: E. coli Rosetta2(DE3)
From the text: as §5, §6, §7, §4

[8] = target: T9, X4E1a6 (E101S/K102R/S195A/M82S/T206L/T207S) (Xenopus laevis, UniProt P48597, E101S/K102R/M82S/S195A/T206L/T207S); assay: fluorescence titration, XeIF4E1a mutant; format: binding; conditions: for Kas X4E1a6: mutant (E101S/K102R/S195A/M82S/T206L/T207S) of XeIF4E1a
T9 construct: made in house; host or cells: E. coli Rosetta2(DE3)
From the text: as §5, §6, §7, §4

heIF4E1a [9] = target: T2, heIF4E1a; set-up: method as in PMID 17369309; conditions: equilibrium association constant; buffer without glycerol; footnote b; cited from earlier work
in vitro translation = tested on: in vitro translation; set-up: method as in PMID 10387101; conditions: Cai et al.; read-out: IC50 (inhibitory potency); cited from earlier work

T9 sequence (P48597 whole entry M82S/E101S/K102R/S195A/T206L/T207S): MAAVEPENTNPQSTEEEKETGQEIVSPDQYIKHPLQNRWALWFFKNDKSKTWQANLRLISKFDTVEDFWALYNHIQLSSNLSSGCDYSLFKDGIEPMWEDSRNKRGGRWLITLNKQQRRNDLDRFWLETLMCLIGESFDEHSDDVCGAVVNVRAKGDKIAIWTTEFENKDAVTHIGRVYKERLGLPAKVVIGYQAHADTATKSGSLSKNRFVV
T1 sequence (P48597 whole entry): as the sequence (P48597 whole entry M82S/E101S/K102R/S195A/T206L/T207S) above, with S82M, S101E, R102K, A195S, L206T, S207T counted along it
T2 sequence (P06730 whole entry): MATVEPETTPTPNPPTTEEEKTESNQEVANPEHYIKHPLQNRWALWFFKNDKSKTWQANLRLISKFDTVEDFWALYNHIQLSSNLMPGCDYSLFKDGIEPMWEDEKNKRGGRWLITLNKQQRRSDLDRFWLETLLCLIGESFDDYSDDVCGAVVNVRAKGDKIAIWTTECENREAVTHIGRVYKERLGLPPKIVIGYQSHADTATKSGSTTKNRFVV
T8 sequence (P48597 whole entry M82S/E101S/K102R/S195A): as the sequence (P48597 whole entry M82S/E101S/K102R/S195A/T206L/T207S) above, with L206T, S207T counted along it
T4 sequence (P48597 whole entry E101S): as the sequence (P48597 whole entry M82S/E101S/K102R/S195A/T206L/T207S) above, with S82M, R102K, A195S, L206T, S207T counted along it
T7 sequence (P48597 whole entry E101S/K102R/S195A): as the sequence (P48597 whole entry M82S/E101S/K102R/S195A/T206L/T207S) above, with S82M, L206T, S207T counted along it
T6 sequence (P48597 whole entry E101S/K102R): as the sequence (P48597 whole entry M82S/E101S/K102R/S195A/T206L/T207S) above, with S82M, A195S, L206T, S207T counted along it
T5 sequence (P48597 whole entry K102R): as the sequence (P48597 whole entry M82S/E101S/K102R/S195A/T206L/T207S) above, with S82M, S101E, A195S, L206T, S207T counted along it

Compound	Kas + glycerol XeIF4E1a (XeIF4E1a [1])	Kas − glycerol XeIF4E1a (XeIF4E1a [1])	Ratio Kas (h4E1a) to Kas (X4E1a) (XeIF4E1a [2])	Kas − glycerol heIF4E1b (heIF4E1b [4])	Ratio Kas (h4E1a) to Kas (h4E1b) (heIF4E1b [5])	Ratio Kas (X4E1a) to Kas (X4E1bΔN27) (XeIF4E1bΔN27; 10% glycerol)	Kas + glycerol XeIF4E1bΔN27 (XeIF4E1bΔN27; 10% glycerol)	Kas X4E1a1 (X4E1a1 (E101S))	Kas X4E1a1’ (X4E1a1’ (K102R))	Kas X4E1a2 (X4E1a2 (E101S/K102R))	Kas X4E1a3 [6]	Kas X4E1a4 [7]	Kas X4E1a6 [8]	Kas − glycerol heIF4E1a (heIF4E1a [9])	also measured
Cn1c[n+]([C@@H]2O[C@H](COP(=O)(O)OP(=O)([O-])OP(=O)(O)OC[C@H]3O[C@@H](n4cnc5c(=O)[nH]c(N)nc54)[C@H](O)[C@@H]3O)[C@@H](O)[C@H]2O)c2nc(N)[nH]c(=O)c21 [m^7GpppG]	2.291 ± 0.065 μM^− 1	3.98 ± 0.11 μM^− 1	1.49	3.53 ± 0.11 μM^− 1	1.68	2.59	0.883 ± 0.032 μM^− 1	3.38 ± 0.16 µM⁻¹	3.341 ± 0.090 µM⁻¹	2.81 ± 0.10 µM⁻¹	2.417 ± 0.051 µM⁻¹	2.87 ± 0.11 µM⁻¹	2.54 ± 0.15 µM⁻¹	5.94 ± 0.39 ^b μM^− 1	ΔΔG^o + glycerol XeIF4E1a (XeIF4E1a [1]; change relative to m^7GTP): 1.351 ± 0.028 kcal/mol; ΔΔG^o − glycerol XeIF4E1a (XeIF4E1a [1]; change relative to m^7GTP): 1.382 ± 0.032 kcal/mol; ΔΔG^o − glycerol heIF4E1a (heIF4E1a [3]; change relative to m^7GTP): 1.423 ± 0.058 kcal/mol; ΔΔG^o − glycerol heIF4E1b (heIF4E1b [4]; change relative to m^7GTP, without glycerol): 1.065 ± 0.040 kcal/mol; ΔΔG^o + glycerol XeIF4E1bΔN27 (XeIF4E1bΔN27; change relative to m^7GTP, 10% glycerol): 1.268 ± 0.037 kcal/mol
COC1C(O)C(COP(=O)(O)OP(=O)(O)OP(=O)(O)OCC2OC(n3cnc4c(=O)[nH]c(N)nc43)C(O)C2O)OC1n1c[n+](C)c2c(=O)[nH]c(N)nc21 (centres unmarked) [m^7,2′-OGpppG]	1.96 ± 0.24 μM^− 1	–	–	4.63 ± 0.12 μM^− 1	1.32	–	–	–	–	–	–	–	–	6.13 ± 0.34 ^b μM^− 1	ΔΔG^o + glycerol XeIF4E1a (XeIF4E1a [1]; change relative to m^7Gp3G): 0.091 ± 0.074 kcal/mol
Nc1nc2c(c(=O)[nH]1)n(Cc1ccc(Cl)cc1)c[n+]2[C@@H]1O[C@H](COP(=O)([O-])OP(=O)(O)O)[C@@H](O)[C@H]1O [p-Cl-bn^7GDP]	–	–	–	–	–	–	–	–	–	–	–	–	–	–	IC50 (in vitro translation): 6.76 µM
Nc1nc2c(c(=O)[nH]1)n(Cc1ccccc1)c[n+]2[C@@H]1O[C@H](COP(=O)(O)OP(=O)(O)O)[C@@H](O)[C@H]1O [bn^7GDP]	6.04 ± 0.92 μM^− 1	10.62 ± 0.98 μM^− 1	1.58	35.4 ± 1.6 μM^− 1	0.47	1.38	4.36 ± 0.18 μM^− 1	9.01 ± 0.21 µM⁻¹	11.22 ± 0.65 µM⁻¹	8.86 ± 0.16 µM⁻¹	9.08 ± 0.33 µM⁻¹	11.66 ± 0.64 µM⁻¹	7.09 ± 0.18 µM⁻¹	–	ΔΔG^o − glycerol XeIF4E1a (XeIF4E1a [1]; change relative to m^7GDP): 0.042 ± 0.059 kcal/mol; ΔΔG^o − glycerol heIF4E1a (heIF4E1a [3]; change relative to m^7GDP): 0.033 ± 0.022 kcal/mol; Kas − glycerol heIF4E1a (heIF4E1a [3]; equilibrium association constant, buffer without glycerol): 16.79 ± 0.56 μM^− 1; fold increase of association constant compared with m^7GDP (heIF4E1b [4]; benzyl substitution): approximately 5 fold; fold increase of association constant compared with m^7GDP (XeIF4E1bΔN27; benzyl substitution): ~2 fold; Kas + glycerol X4E1a6 ([8]; 10% glycerol, Fig. 5d): 3.57 ± 0.24 µM⁻¹

From paper PMC4306533, “Distinct Features of Cap Binding by eIF4E1b Proteins” (Journal of Molecular Biology, 2015)
